Experimental data as given in publication PMC3501516, “Anti-Diabetic Efficacy and Impact on Amino Acid Metabolism of GRA1, a Novel Small-Molecule Glucagon Receptor Antagonist” (PLoS ONE, 2012).

Columns and labels:
[1] = test system: perfused liver from hGCGR mice; experiment: Glucagon-stimulated glycogenolysis in perfused liver from hGCGR mouse (13C NMR); conditions: 50 pM glucagon
Procedure: Livers were perfused with Ringers solution containing 6.7 mM [2-^13C]pyruvate while ^13C content (indicative of accumulated [^13C]glycogen) was monitored dynamically by nuclear magnetic resonance imaging. At time = −22 min, 0.1–3.0 uM GRA1 or vehicle was added to the perfusate; 50 pM glucagon or vehicle was added at time 0. The data are means ±SEM.
Glycogen content of perfused hGCGR mouse liver was measured as previously described [30]. In brief, livers were perfused ex vivo with Ringers solution containing 6.7 mM [2-^13C]pyruvate while ^13C content (indicative of accumulated [^13C]glycogen) was monitored dynamically by nuclear magnetic resonance imaging.

[2] = Pharmacokinetics / plasma GRA1 concentrations in hGCGR mice; format: in vivo; conditions: mouse
Procedure: Under control conditions, hGCGR mice were normoglycemic and treatment of these animals with GRA1 lowered blood glucose concentrations only moderately.
Figure 2 In vivo inhibition of hepatic ^125I-glucagon binding in the hGCGR mouse following (A) acute and (B) chronic dosing with GRA1. The data are mean (±SEM) percent reductions in liver ^125I-glucagon content measured (A) 1, 3, 5, and 8 h after a single oral dose of 3 mg/kg GRA1, and (B) after treatment for 30 days with control diet or food/drug admixtures that provided 3, 6, 10, or 30 mg/kg·day GRA1. Pharmacokinetic analysis performed during the experiment in (A) determined that mean plasma GRA1 concentrations were 0.5, 0.6, 0.5, and 0.7 µM at 1, 3, 5, and 8 h postdose, respectively. TEXT PRINTED IN THE PICTURE: (A) no label printed: Receptor occupancy (%): 64% (Time postdose (h): 1); Receptor occupancy (%): 71% (Time postdose (h): 3); Receptor occupancy (%): 65% (Time postdose (h): 5); Receptor occupancy (%): 73% (Time postdose (h): 8) | (B) no label printed: Receptor occupancy (%): 71% (Dose (mg/kg): 3); Receptor occupancy (%): 78% (Dose (mg/kg): 6); Receptor occupancy (%): 83% (Dose (mg/kg): 10); Receptor occupancy (%): 93% (Dose (mg/kg): 30)
Figure 3 Blunting of glucagon-induced blood glucose excursions by GRA1 treatment in the (A) hGCGR mouse and (B) rhesus monkey. In (A), mice (n = 8) were administered vehicle or 3, 10 or 30 mg/kg GRA1, then challenged 1 h later (time 0) by intraperitoneal injection of 15 µg/kg glucagon or vehicle. Pharmacokinetic analysis determined that these animals had mean plasma GRA1 concentrations of 0.4, 0.9, and 4.7 µM, respectively, at 1 h postdose. In (B), monkeys (n = 4) were administered 1 mg/kg GRA1 4 h prior to intramuscular injection of 15 µg/kg glucagon or vehicle. At 1 h postdose, the mean plasma GRA1 concentration in these animals was 0.2 µM. *p<0.05; **p<0.01; and ***p<0.001 vs. glucagon-treated control animals.

[3] = test system: rhesus monkey liver; experiment: Hepatic gene expression (Affymetrix microarray of liver biopsies) in rhesus monkeys; format: in vivo; conditions: 30 mg/kg twice daily
Procedure: Hepatic gene expression was assessed by liver biopsy in adult rhesus monkeys that had been treated twice daily for 1 and 6 days with 30 mg/kg GRA1 or vehicle. The compound was administered to the animals orally in yogurt or a similar treat while they were housed in their home cages. The animals were fasted for approximately 16 h prior to performing liver biopsies laparoscopically, under anesthesia. On biopsy days, animals received their morning doses of GRA1 2 h before the biopsies were performed.
Total RNA was processed for Affymetrix microarray analysis as previously described. Briefly, total RNA was isolated from frozen tissues after homogenizing in TRIzol reagent (Invitrogen, Carlsbad, CA) and processed using RNeasy kits (QIAGEN, Valencia, CA) according to manufacturers' instructions. Sample amplification, labeling, and microarray processing were performed by the Covance Genomics Laboratory in Seattle, WA using the Affymetrix catalog Rhesus array (Affymetrix, Santa Clara, CA). One-way ANOVA analyses were performed with Matlab (The Mathworks, Natick, MA). Probesets had to pass a pre-filter of Affymetrix MAS5 present call p value <0.05 in >50% of the samples to qualify for further analysis. Differentially expressed genes (probesets) were selected with 1.2-fold change and ANOVA p value <0.05.

Q: Which “Reduction of hepatic response to glucagon (13C glycogen loss)” value ([1]; 0.3 µM GRA1 pretreatment) does the source give for `COc1ccc2cc(-c3cc(-c4cc(C(F)(F)F)ccc4F)nn3[C@@H](C)c3ccc(C(=O)NCCC(=O)O)cc3)ccc2c1` [GRA1, N-[4-((1S)-1-{3-(2-fluoro-5-trifluoromethylphenyl)-5-[6-methoxynaphth-2-yl]-1H-pyrazol-1-yl}ethyl)benzoyl]-β-alanine] here?
A: about 50%

Q: And the “Hepatic response to glucagon (13C glycogen loss)” value ([1]; 1 µM GRA1 pretreatment)?
A: completely prevented

Q: What about the “Hepatic response to glucagon (13C glycogen loss)” value ([1]; 3 µM GRA1 pretreatment) of the same compound?
A: completely prevented

Q: And the concentration at 1 h ([2]; oral, 3 mg/kg p.o., 1 h postdose (glucagon challenge))?
A: 400 nM

Q: What about the concentration at 1 h ([2]; oral, 10 mg/kg p.o., 1 h postdose (glucagon challenge)) of the same compound?
A: 900 nM

Q: What about the concentration at 1 h ([2]; oral, 30 mg/kg p.o., 1 h postdose (glucagon challenge)) of the same compound?
A: 4700 nM

Q: What about the concentration at 1 h ([2]; single oral 3 mg/kg, 1 h postdose (occupancy experiment)) of the same compound?
A: 500 nM

Q: And the concentration at 3 h ([2]; single oral 3 mg/kg, 3 h postdose (occupancy experiment))?
A: 600 nM

Q: What about the concentration at 5 h ([2]; single oral 3 mg/kg, 5 h postdose (occupancy experiment)) of the same compound?
A: 500 nM

Q: And the concentration at 8 h ([2]; single oral 3 mg/kg, 8 h postdose (occupancy experiment))?
A: 700 nM

Q: And the “AASS (aminoadipate-semialdehyde synthase) hepatic expression, fold difference vs vehicle” value ([3]; Day 1)?
A: −2.0 fold

Q: What about the “AGXT2L1 hepatic expression, fold difference vs vehicle” value ([3]; Day 1) of the same compound?
A: −1.5 fold

Q: And the “ASL (argininosuccinate lyase) hepatic expression, fold difference vs vehicle” value ([3]; Day 1)?
A: −1.5 fold

Q: What about the “BCKDHB hepatic expression, fold difference vs vehicle” value ([3]; Day 1) of the same compound?
A: −1.4 fold

Q: And the “DDC (dopa decarboxylase) hepatic expression, fold difference vs vehicle” value ([3]; Day 1)?
A: −1.4 fold

Q: What about the “FH (fumarate hydratase) hepatic expression, fold difference vs vehicle” value ([3]; Day 1) of the same compound?
A: −1.2 fold

Q: And the “GCKR (glucokinase regulator) hepatic expression, fold difference vs vehicle” value ([3]; Day 1)?
A: 1.5 fold

Q: And the “GPT (alanine aminotransferase) hepatic expression, fold difference vs vehicle” value ([3]; Day 1)?
A: −1.5 fold

Q: And the “HPD (4-hydroxyphenylpyruvate dioxygenase) hepatic expression, fold difference vs vehicle” value ([3]; Day 1)?
A: −1.3 fold

Q: What about the “KMO (kynurenine 3-monooxygenase) hepatic expression, fold difference vs vehicle” value ([3]; Day 1) of the same compound?
A: −1.3 fold

Q: And the “OAT (ornithine aminotransferase) hepatic expression, fold difference vs vehicle” value ([3]; Day 1)?
A: −1.9 fold

Q: And the “SDS (serine dehydratase) hepatic expression, fold difference vs vehicle” value ([3]; Day 1)?
A: −8.8 fold

Q: What about the “SDSL (serine dehydratase-like) hepatic expression, fold difference vs vehicle” value ([3]; Day 1) of the same compound?
A: −1.6 fold

Q: And the “SLC7A2 hepatic expression, fold difference vs vehicle” value ([3]; Day 1)?
A: −1.8 fold

Q: And the “TAT (tyrosine aminotransferase) hepatic expression, fold difference vs vehicle” value ([3]; Day 1)?
A: −1.8 fold

Q: What about the “ARG1 (arginase, liver) hepatic expression, fold difference vs vehicle” value ([3]; Day 1 (ns)) of the same compound?
A: −1.1 fold

Q: What about the “GCK (glucokinase) hepatic expression, fold difference vs vehicle” value ([3]; Day 1 (ns)) of the same compound?
A: 2.4 fold

Q: What about the “GLS2 (glutaminase 2) hepatic expression, fold difference vs vehicle” value ([3]; Day 1 (ns)) of the same compound?
A: −1.3 fold

Q: And the “GOT1 hepatic expression, fold difference vs vehicle” value ([3]; Day 1 (ns))?
A: −1.5 fold

Q: And the “PAH (phenylalanine hydroxylase) hepatic expression, fold difference vs vehicle” value ([3]; Day 1 (ns))?
A: −1.5 fold

Q: What about the “SLC1A2 hepatic expression, fold difference vs vehicle” value ([3]; Day 1 (ns)) of the same compound?
A: −1.6 fold

Q: What about the “AASS (aminoadipate-semialdehyde synthase) hepatic expression, fold difference vs vehicle” value ([3]; Day 6) of the same compound?
A: −3.0 fold

Q: What about the “AGXT2L1 hepatic expression, fold difference vs vehicle” value ([3]; Day 6) of the same compound?
A: −1.8 fold

Q: And the “ARG1 (arginase, liver) hepatic expression, fold difference vs vehicle” value ([3]; Day 6)?
A: −1.3 fold

Q: And the “ASL (argininosuccinate lyase) hepatic expression, fold difference vs vehicle” value ([3]; Day 6)?
A: −1.6 fold

Q: And the “BCKDHB hepatic expression, fold difference vs vehicle” value ([3]; Day 6)?
A: −1.3 fold

Q: What about the “FH (fumarate hydratase) hepatic expression, fold difference vs vehicle” value ([3]; Day 6) of the same compound?
A: −1.2 fold

Q: And the “GCK (glucokinase) hepatic expression, fold difference vs vehicle” value ([3]; Day 6)?
A: 5.4 fold

Q: What about the “GCKR (glucokinase regulator) hepatic expression, fold difference vs vehicle” value ([3]; Day 6) of the same compound?
A: 1.3 fold

Q: And the “GLS2 (glutaminase 2) hepatic expression, fold difference vs vehicle” value ([3]; Day 6)?
A: −1.6 fold

Q: What about the “GOT1 hepatic expression, fold difference vs vehicle” value ([3]; Day 6) of the same compound?
A: −2.1 fold

Q: What about the “GPT (alanine aminotransferase) hepatic expression, fold difference vs vehicle” value ([3]; Day 6) of the same compound?
A: −1.3 fold

Q: And the “HPD (4-hydroxyphenylpyruvate dioxygenase) hepatic expression, fold difference vs vehicle” value ([3]; Day 6)?
A: −1.2 fold

Q: What about the “KMO (kynurenine 3-monooxygenase) hepatic expression, fold difference vs vehicle” value ([3]; Day 6) of the same compound?
A: −1.5 fold

Q: What about the “OAT (ornithine aminotransferase) hepatic expression, fold difference vs vehicle” value ([3]; Day 6) of the same compound?
A: −3.6 fold

Q: And the “PAH (phenylalanine hydroxylase) hepatic expression, fold difference vs vehicle” value ([3]; Day 6)?
A: −2.1 fold

Q: What about the “SDS (serine dehydratase) hepatic expression, fold difference vs vehicle” value ([3]; Day 6) of the same compound?
A: −27.1 fold

Q: And the “SLC1A2 hepatic expression, fold difference vs vehicle” value ([3]; Day 6)?
A: −7.6 fold

Q: And the “SLC7A2 hepatic expression, fold difference vs vehicle” value ([3]; Day 6)?
A: −2.4 fold

Q: And the “DDC (dopa decarboxylase) hepatic expression, fold difference vs vehicle” value ([3]; Day 6 (ns))?
A: −1.1 fold

Q: And the “SDSL (serine dehydratase-like) hepatic expression, fold difference vs vehicle” value ([3]; Day 6 (ns))?
A: −1.5 fold

Q: What about the “TAT (tyrosine aminotransferase) hepatic expression, fold difference vs vehicle” value ([3]; Day 6 (ns)) of the same compound?
A: −1.7 fold
